This assay relates to P388 leukemia ip, CD2F1 mice, survival T/C. Put plainly: NCI In Vivo Anticancer Drug Screen. Data for tumor model P388 Leukemia (intraperitoneal) in CD2F1 (CDF1) mice. To be noted: endpoint: median survival time, higher = longer survival. The essentials:
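Mice carrying the transplanted tumor received test compound or vehicle. Survival was recorded in each group, and the value is the treated-group measurement divided by that of the vehicle-treated control group.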

Setting [1] is: dose: 100.0 mg/kg/injection, schedule: Q01DX009 (ip), vehicle: saline with Tween-80.
The mark [2] stands for this setting: dose: 200.0 mg/kg/injection, schedule: Q01DX009 (ip), vehicle: saline with Tween-80.
Where [3] appears, read: dose: 50.0 mg/kg/injection, schedule: Q01DX009 (ip), vehicle: Klucel (hydroxypropylcellulose) (HPC).
[4] abbreviates: dose: 50.0 mg/kg/injection, schedule: Q01DX009 (ip), vehicle: saline with Tween-80.
The mark [5] stands for this setting: dose: 100.0 mg/kg/injection, schedule: Q01DX009 (ip), vehicle: Klucel (hydroxypropylcellulose) (HPC).
Where [6] appears, read: dose: 200.0 mg/kg/injection, schedule: Q01DX009 (ip), vehicle: Klucel (hydroxypropylcellulose) (HPC).
The mark [7] stands for this setting: dose: 50.0 mg/kg/injection, schedule: Q01DX005 (ip), vehicle: Klucel (hydroxypropylcellulose) (HPC).
[8] abbreviates: dose: 100.0 mg/kg/injection, schedule: Q01DX005 (ip), vehicle: Klucel (hydroxypropylcellulose) (HPC).
[9] abbreviates: dose: 200.0 mg/kg/injection, schedule: Q01DX005 (ip), vehicle: Klucel (hydroxypropylcellulose) (HPC).

In PubChem BioAssay AID330 (DTP/NCI, 2004) one finds T/C data, which are given here for eleven molecules.

Values joined by “and” are separate entries in the source; they are usually repeats but may differ in a detail not shown here. Equal values may be shown once. Toxic doses and inconclusive results are not listed. Peptide text beside a SMILES is read from it. * marks the point of attachment. Cbz = O=C(OCc1ccccc1)*

As for `CC1OC2CC(O)C1(O)C1=C2C(O)=C(C(N)=O)C(=N)C1=O` (stereo unspecified), the T/C is 99 % of control (dose: 0.01 mg/kg/injection, schedule: Q01DX009 (ip), vehicle: water); 100 % of control (dose: 0.03 mg/kg/injection, schedule: Q01DX009 (ip), vehicle: water); 95 % of control (dose: 0.07 mg/kg/injection, schedule: Q01DX009 (ip), vehicle: other); 100 % of control (dose: 0.1 mg/kg/injection, schedule: Q01DX009 (ip), vehicle: water); 98 % of control (dose: 0.15 mg/kg/injection, schedule: Q01DX009 (ip), vehicle: other); 100 % of control (dose: 0.3 mg/kg/injection, schedule: Q01DX009 (ip), vehicle: water). The T/C was 104 % of control (dose: 0.31 mg/kg/injection, schedule: Q01DX005 (ip), vehicle: saline); 107 % of control (dose: 0.31 mg/kg/injection, schedule: Q01DX009 (ip), vehicle: other); 104 % of control (dose: 0.62 mg/kg/injection, schedule: Q01DX005 (ip), vehicle: saline); 101 % of control (dose: 0.62 mg/kg/injection, schedule: Q01DX009 (ip), vehicle: other); 90 % of control (dose: 1.0 mg/kg/injection, schedule: Q01DX009 (ip), vehicle: water); 104 % of control (dose: 1.25 mg/kg/injection, schedule: Q01DX005 (ip), vehicle: saline). Besides, the T/C was 103 % of control (dose: 1.25 mg/kg/injection, schedule: Q01DX009 (ip), vehicle: other); 104 % of control (dose: 2.5 mg/kg/injection, schedule: Q01DX005 (ip), vehicle: saline); 113 % of control (dose: 2.5 mg/kg/injection, schedule: Q01DX009 (ip), vehicle: other); 100 % of control (dose: 3.0 mg/kg/injection, schedule: Q01DX009 (ip), vehicle: water); 101 % of control (dose: 5.0 mg/kg/injection, schedule: Q01DX005 (ip), vehicle: saline).

Regarding `O=C(NCCCBr)Nc1cccc2c1CCCC2`, the T/C is 100 % of control under setting [1]; 100 % of control (dose: 100.0 mg/kg/injection, schedule: Q04DX003 (ip), vehicle: saline with Tween-80); 100 % of control under setting [2]; 108 % of control (dose: 200.0 mg/kg/injection, schedule: Q04DX003 (ip), vehicle: saline with Tween-80); 100 % of control (dose: 400.0 mg/kg/injection, schedule: Q01DX009 (ip), vehicle: saline with Tween-80); 100 % of control (dose: 400.0 mg/kg/injection, schedule: Q04DX003 (ip), vehicle: saline with Tween-80).

With `CC/C(=C(\CC)c1ccc(OC)cc1)c1ccc(OC)cc1`, the T/C (dose: 25.0 mg/kg/injection, schedule: Q01DX009 (ip), vehicle: Klucel (hydroxypropylcellulose) (HPC)) was 107 % of control; the T/C under setting [3] is 105 % of control; the T/C under setting [4] was 102 % of control; the T/C under setting [5] was 106 % of control; the T/C under setting [1] is 98 % of control; the T/C under setting [6] is 97 % of control.

As to `OC(C1=CCCCC1)(c1ccccc1)c1ccccc1`, the T/C by setting is: (dose: 25.0 mg/kg/injection, schedule: Q01DX005 (ip), vehicle: Klucel (hydroxypropylcellulose) (HPC)) 98 % of control; under setting [7], 100 % of control; under setting [8], 90 % of control; under setting [9], 91 % of control.

For `O=[N+]([O-])c1ccccc1Sc1cccc(Sc2ccccc2[N+](=O)[O-])n1`, the T/C (dose: 60.0 mg/kg/injection, schedule: Q01DX005 (ip), vehicle: saline with Tween-80) was 100 % of control; the T/C (dose: 120.0 mg/kg/injection, schedule: Q01DX005 (ip), vehicle: saline with Tween-80) was 105 % of control; the T/C (dose: 240.0 mg/kg/injection, schedule: Q01DX005 (ip), vehicle: saline with Tween-80) was 102 % of control.

For the molecule `Cc1c(NC(=S)Nc2c(C(C)C)cccc2C(C)C)c(=O)n(-c2ccccc2)n1C`, the T/C runs as follows: under setting [3], 113 % of control; under setting [5], 106 % of control; under setting [6], 106 % of control.

As to `CC(C)CC(NC(=O)C(Cc1ccccc1)NC(=O)OCc1ccccc1)C(=O)O` (stereo not drawn) (Cbz-Phe-Leu-OH; configuration not given here), the T/C reads like this: (dose: 50.0 mg/kg/injection, schedule: Q01DX005 (ip), vehicle: saline with Tween-80) 108 % of control; (dose: 100.0 mg/kg/injection, schedule: Q01DX005 (ip), vehicle: saline with Tween-80) 105 % of control.

Consider `NC(=O)c1cncc(C(=O)O)c1`, for which the T/C under setting [7] was 106 % of control, the T/C under setting [8] is 101 % of control and the T/C under setting [9] was 100 % of control.

`Oc1ccccc1CNc1ncc(Cl)cc1Cl`: the T/C reads like this: under setting [4], 100 % of control; under setting [1], 88 % of control; under setting [2], 94 % of control.

As for `O=C(NC(CCSSCCC(NC(=O)OCc1ccccc1)C(=O)OCc1ccccc1)C(=O)OCc1ccccc1)OCc1ccccc1` (stereo unspecified), the T/C (dose: 12.5 mg/kg/injection, schedule: Q01DX009 (ip), vehicle: other) is 91 % of control; the T/C (dose: 25.0 mg/kg/injection, schedule: Q01DX009 (ip), vehicle: other) is 98 % of control; the T/C (dose: 50.0 mg/kg/injection, schedule: Q01DX009 (ip), vehicle: other) was 94 % of control; the T/C (dose: 100.0 mg/kg/injection, schedule: Q01DX009 (ip), vehicle: other) was 98 % of control; the T/C (dose: 200.0 mg/kg/injection, schedule: Q01DX009 (ip), vehicle: other) was 100 % of control.

`Cc1ncc(CNC(=O)N(CCCl)N=O)c(N)n1`: the T/C is, setting by setting: (dose: 10.0 mg/kg/injection, schedule: Q01DX001 (ip), vehicle: saline) 191 % of control; (dose: 20.0 mg/kg/injection, schedule: Q01DX001 (ip), vehicle: saline) 260 % of control and 336 % of control; (dose: 30.0 mg/kg/injection, schedule: Q01DX001 (ip), vehicle: saline) 517 % of control; (dose: 40.0 mg/kg/injection, schedule: Q01DX001 (ip), vehicle: saline) 120 % of control and 260 % of control.
